Here are results for two substances from article PMC11475408, “All‐Inorganic Polyoxometalates Act as Superchaotropic Membrane Carriers” (Advanced Materials (Deerfield Beach, Fla.), 2023).

The test system of data set [1] is protamine. In words: ITC, POM into protamine. It counts as binding. The note with it: 10 mM Tris, pH 7.4, value is Ka divided by 10^7. As to the method: All experiments were performed with a VP‐ITC MicroCalorimeter from MicroCal, Int,. at atmospheric pressure and 298.15 K. Solutions were degassed and thermostatic prior to the titration experiments in a ThermoVac accessory. A constant volume of POM ([PVW11]^4‒ or [SiMoW11]^4‒) (10 µL per injection) was injected into the oligopeptide solution (heptaArg, protamine, polyArg or heptaLys) in 10 mM Tris, pH 7.4 to determine the apparent binding affinity of [PVW11]^4‒ and [SiMoW11]^4‒ with the oligopeptides. Dilution heats were determined by titration of the POM into buffer and subtracted from the reaction heat. The neat reaction heat was fitted with Origin 7.0 software by using the “one‐set‐of‐sites” model to obtain the complex stability constant (K a) and molar reaction enthalpy (∆H°). The free energy (∆G°) and entropy changes (∆S°) were obtained according to the relation: ∆G° = −RTlnK a = ∆H°−T∆S°.
4. Supramolecular interactions
Figure S10. Microcalorimetric titrations in 10 mM Tris, pH 7.4: Raw ITC data (top) for the sequential injections of POM solution into an oligoarginine solution, and apparent reaction heats (bottom) obtained from the integration of the calorimetric traces. […]
values and ± 0.5 kcal mol‒1 for ΔH and TΔS (duplicate measurements). Note that none of these interactions lead to any precipitation or aggregates, confirmed by the absence of any detectable signal by DLS. […]
A general note: Isothermal titration calorimetry measures the heat released or taken up as one component is titrated into another.

A short description of data set [2]: Stability of POMs in nutrient mixture F-12 Ham by NMR. It counts as physicochemical. The procedure: To better mimic biological membranes, which contain negatively charged components and cholesterol, equivalent transport experiments were performed in anionic liposomes^[ [19], [20] ^] with the prototypal POM carriers, [PVW11]^4‒ and [SiMoW11]^4‒ . […] This encouraged us to transfer the experiments to CHO‐K1 (Chinese hamster ovary) cells, after we had confirmed sufficient stability of the most promising POM carriers, [PVW11]^4‒ and [SiMoW11]^4‒ , in the cellular nutrient mixture (F‐12 Ham's medium, Figures S26–S28C, Supporting Information).
Table S9. Results of stability investigation by NMR spectroscopy.
11 product, presumably [SiIVWVI12O40]4–) […]
product, presumably [SiIVWVI12O40]4–)
[AlW ]5‒ freshly prepared
[GeAlW ]5‒ freshly prepared […]
prepared ‒13.7; ‒14.7 intermediate anions
Stability of [PVW11]4‒ in 10 mM Mes buffer pH 5.5: 31P NMR studies were firstly performed on 3 mM solutions of [α-PVVVWVI11O40]4‒ in 10 mM Mes buffer pH 5.5 (Figure S25). The 31P NMR recorded immediately ([…]), one day (Figure S25B), and five days (Figure S25C) after solution preparation display the same signals that can be attributed to the intact [α-PVVVWVI11O40]4‒ (‒14.9 ppm) and the monolacunary [α-PVWVI11O40]7‒ (‒10.8 ppm) species formed upon partial hydrolysis. […]
Figure S24. 31P (A) and 51V (B) NMR spectra of 3 mM solutions of [PVW11]4‒ recorded in D2O. […]

Several values for one entry are separate records, joined by “and”; a condition that tells them apart may be missing. Identical values can stand only once.

Turning to “K4[α‐P^VV^VW^VI 11O40]·4H2O [[PVW11]^4‒]”, in data set [1], the “Ka/ 107, protamine” value is 25 M‒1. In addition, the “% parent anion, nutrient mixture F-12 Ham freshly prepared” value in data set [2] (3 mM POM, F-12 Ham pH 7.4, 31P NMR integration) is listed as 43%.
In the case of “K4[α‐Si^IVMo^VIW^VI 11O40]·24H2O [[SiMoW11]^4‒]”, in data set [1], the “Ka/ 107, protamine” value is given as 1.7 M‒1. For the same substance, the “% parent anion, F-12 Ham after 1 h at 37 °C (183W NMR)” value in data set [2] (10 mM POM, F-12 Ham (final pH 5.7), 183W NMR signal intensities) is 50% and ~ 50%.
